Several values for one entry are separate records, joined by “and”; a condition that tells them apart may be missing. Equal entries are not always repeated. Inconclusive results and toxic doses are left out. Rule for the calls: active = survival T/C of 150% or more; inactive = T/C below 125% in these data.
System: P388 leukemia ip, CD2F1 mice, survival T/C
Test: NCI In Vivo Anticancer Drug Screen. Data for tumor model P388 Leukemia (intraperitoneal) in CD2F1 (CDF1) mice
Settings: endpoint: median survival time, higher = longer survival
Method in brief: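 Mice carrying the transplanted tumor received test compound or vehicle. Survival was recorded in each group, and the value is the treated-group measurement divided by that of the vehicle-treated control group.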

[1] = dose: 50.0 mg/kg/injection, schedule: Q01DX009 (ip), vehicle: Klucel (hydroxypropylcellulose) (HPC)
[2] = dose: 50.0 mg/kg/injection, schedule: Q01DX009 (ip), vehicle: saline
[3] = dose: 100.0 mg/kg/injection, schedule: Q01DX009 (ip), vehicle: saline
[4] = dose: 200.0 mg/kg/injection, schedule: Q01DX009 (ip), vehicle: saline
[5] = dose: 100.0 mg/kg/injection, schedule: Q04DX002 (ip), vehicle: Klucel (hydroxypropylcellulose) (HPC)
[6] = dose: 200.0 mg/kg/injection, schedule: Q04DX002 (ip), vehicle: Klucel (hydroxypropylcellulose) (HPC)
[7] = dose: 400.0 mg/kg/injection, schedule: Q04DX002 (ip), vehicle: Klucel (hydroxypropylcellulose) (HPC)
[8] = dose: 100.0 mg/kg/injection, schedule: Q01DX001 (ip), vehicle: Klucel (hydroxypropylcellulose) (HPC)
[9] = dose: 60.0 mg/kg/injection, schedule: Q01DX005 (ip), vehicle: Klucel (hydroxypropylcellulose) (HPC)
[10] = dose: 120.0 mg/kg/injection, schedule: Q01DX005 (ip), vehicle: Klucel (hydroxypropylcellulose) (HPC)
[11] = dose: 240.0 mg/kg/injection, schedule: Q01DX005 (ip), vehicle: Klucel (hydroxypropylcellulose) (HPC)

Measured: T/C

Nc1nc2ccc([N+](=O)[O-])cc2[nH]1
inactive: [1] 99 % of control | dose: 100.0 mg/kg/injection, schedule: Q01DX009 (ip), vehicle: Klucel (hydroxypropylcellulose) (HPC) 101 % of control | dose: 200.0 mg/kg/injection, schedule: Q01DX009 (ip), vehicle: Klucel (hydroxypropylcellulose) (HPC) 90 % of control

O=C1CC2C1C1C=CC2n2c(=O)n(-c3ccccc3)c(=O)n21 (configuration not stated)
inactive: dose: 12.5 mg/kg/injection, schedule: Q04DX002 (ip), vehicle: saline with Tween-80 98 % of control | dose: 25.0 mg/kg/injection, schedule: Q04DX002 (ip), vehicle: saline with Tween-80 99 % of control | dose: 50.0 mg/kg/injection, schedule: Q04DX002 (ip), vehicle: saline with Tween-80 101 % of control

COc1cccc2c1C(=N)c1c(O)c3c(c(O)c1C2=O)CC(O)(C(C)=O)CC3OC1CC(N(Cc2ccccc2)Cc2ccccc2)C(O)C(C)O1 (configuration not stated)
inactive: dose: 4.69 mg/kg/injection, schedule: Q04DX003 (ip), vehicle: distilled water + Tween-80 101 % of control | dose: 9.38 mg/kg/injection, schedule: Q04DX003 (ip), vehicle: distilled water + Tween-80 102 % of control | dose: 18.75 mg/kg/injection, schedule: Q04DX003 (ip), vehicle: distilled water + Tween-80 100 % of control | dose: 37.5 mg/kg/injection, schedule: Q04DX003 (ip), vehicle: distilled water + Tween-80 96 % of control | dose: 75.0 mg/kg/injection, schedule: Q04DX003 (ip), vehicle: distilled water + Tween-80 101 % of control | dose: 150.0 mg/kg/injection, schedule: Q04DX003 (ip), vehicle: distilled water + Tween-80 108 % of control

NCCCC(N)(C(=O)O)C(F)F (configuration not stated)
inactive: dose: 50.0 mg/kg/injection, schedule: Q01DX005 (ip), vehicle: saline 106 % of control | dose: 50.0 mg/kg/injection, schedule: Q01DX009 (ip), vehicle: distilled water + alcohol 112 % of control | [2] 87 % of control | dose: 100.0 mg/kg/injection, schedule: Q01DX005 (ip), vehicle: saline 103 % of control | dose: 100.0 mg/kg/injection, schedule: Q01DX009 (ip), vehicle: distilled water + alcohol 112 % of control | [3] 103 % of control | dose: 200.0 mg/kg/injection, schedule: Q01DX005 (ip), vehicle: saline 103 % of control | dose: 200.0 mg/kg/injection, schedule: Q01DX009 (ip), vehicle: distilled water + alcohol 115 % of control | [4] 110 % of control | dose: 400.0 mg/kg/injection, schedule: Q01DX009 (ip), vehicle: distilled water + alcohol 119 % of control | dose: 800.0 mg/kg/injection, schedule: Q01DX009 (ip), vehicle: distilled water + alcohol 111 % of control

O=C(O)COc1ccc(I)cc1I
inactive: dose: 100.0 mg/kg/injection, schedule: Q04DX003 (ip), vehicle: Klucel (hydroxypropylcellulose) (HPC) 110 % of control | dose: 200.0 mg/kg/injection, schedule: Q04DX003 (ip), vehicle: Klucel (hydroxypropylcellulose) (HPC) 91 % of control

COc1cccc2c1C(=O)c1c(O)c3c(c(O)c1C2=O)CC(O)(C(C)=O)CC3OC1CC(OC(=O)c2ccc([N+](=O)[O-])cc2)C(OC(=O)c2ccc([N+](=O)[O-])cc2)C(COC(=O)c2ccc([N+](=O)[O-])cc2)O1 (configuration not stated)
inactive: dose: 3.13 mg/kg/injection, schedule: Q04DX003 (ip), vehicle: distilled water + Tween-80 100 % of control and 101 % of control | dose: 6.25 mg/kg/injection, schedule: Q04DX003 (ip), vehicle: distilled water + Tween-80 100 % of control and 99 % of control | dose: 12.5 mg/kg/injection, schedule: Q04DX003 (ip), vehicle: distilled water + Tween-80 104 % of control | dose: 25.0 mg/kg/injection, schedule: Q04DX003 (ip), vehicle: distilled water + Tween-80 102 % of control and 100 % of control | dose: 50.0 mg/kg/injection, schedule: Q04DX003 (ip), vehicle: distilled water + Tween-80 95 % of control

CCN(Cc1c(C)[nH]c2ccc(N(C)C)cc2c1=O)Cc1c(C)[nH]c2ccc(N(C)C)cc2c1=O
inactive: [2] 101 % of control | [3] 101 % of control | [4] 106 % of control

O=c1c2ccccc2ncn1C12CC3CC(CC(C3)C1)C2
inactive: [5] 105 % of control | [6] 100 % of control | [7] 100 % of control

Clc1ccc(-c2cn3c(n2)SCC3)cc1
inactive: [8] 121 % of control | [5] 102 % of control | dose: 200.0 mg/kg/injection, schedule: Q01DX001 (ip), vehicle: Klucel (hydroxypropylcellulose) (HPC) 88 % of control | [6] 104 % of control | [7] 106 % of control

COC(=O)C(CC(=O)c1cc2c(cc1Br)OCO2)(Cc1cc(OC)c(OC)c(OC)c1I)C(=O)OC
inactive: dose: 3.12 mg/kg/injection, schedule: Q01DX009 (ip), vehicle: saline 97 % of control | dose: 6.25 mg/kg/injection, schedule: Q01DX009 (ip), vehicle: saline 98 % of control | dose: 12.5 mg/kg/injection, schedule: Q01DX009 (ip), vehicle: saline 97 % of control | dose: 25.0 mg/kg/injection, schedule: Q01DX009 (ip), vehicle: saline 98 % of control | dose: 100.0 mg/kg/injection, schedule: Q01DX001 (ip), vehicle: saline 100 % of control | dose: 200.0 mg/kg/injection, schedule: Q01DX001 (ip), vehicle: saline 98 % of control | dose: 400.0 mg/kg/injection, schedule: Q01DX001 (ip), vehicle: saline 100 % of control

CNC1=CC(=O)c2c(c3cc(OC(C)=O)ccc3n2C)C1=O
inactive: [2] 99 % of control | [3] 99 % of control | [4] 100 % of control

C=CC(C)(C)c1[nH]c2ccccc2c1CC1NC(=O)C(C)NC1=O (configuration not stated)
inactive: dose: 12.5 mg/kg/injection, schedule: Q01DX009 (ip), vehicle: Klucel (hydroxypropylcellulose) (HPC) 86 % of control | [1] 92 % of control

COc1cc(CCN=Cc2cccc(OC)c2O)c([N+](=O)[O-])cc1OC
inactive: dose: 50.0 mg/kg/injection, schedule: Q01DX005 (ip), vehicle: Klucel (hydroxypropylcellulose) (HPC) 93 % of control | dose: 100.0 mg/kg/injection, schedule: Q01DX005 (ip), vehicle: Klucel (hydroxypropylcellulose) (HPC) 93 % of control | dose: 200.0 mg/kg/injection, schedule: Q01DX005 (ip), vehicle: Klucel (hydroxypropylcellulose) (HPC) 93 % of control

CCc1nc2ccccc2c(=O)n1C
inactive: dose: 12.5 mg/kg/injection, schedule: Q01DX009 (ip), vehicle: saline with Tween-80 100 % of control | dose: 25.0 mg/kg/injection, schedule: Q01DX009 (ip), vehicle: saline with Tween-80 100 % of control | dose: 50.0 mg/kg/injection, schedule: Q01DX009 (ip), vehicle: saline with Tween-80 95 % of control

CC1=CC(O)(c2ccccn2)P(=O)(c2ccccc2)C=C1C (configuration not stated)
inactive: [9] 115 % of control | [10] 111 % of control | [11] 99 % of control

CC/C(=C(/CC)c1ccc(OCC(=O)N/N=C2/C=C3CCC4C(CCC5(C)C(O)CCC45)C3(C)CC2)cc1)c1ccc(OCC(=O)N/N=C2\C=C3CCC4C(CCC5(C)C(O)CCC45)C3(C)CC2)cc1 (configuration not stated)
inactive: dose: 50.0 mg/kg/injection, schedule: Q01DX001 (ip), vehicle: Klucel (hydroxypropylcellulose) (HPC) 95 % of control | [8] 87 % of control

COC(=O)NN(C(=O)OC)C1CCCC2C1c1ccc3ccccc3c1N(C(=O)OC)N2C(=O)OC (configuration not stated)
inactive: [9] 107 % of control | [10] 100 % of control | [11] 109 % of control
